# ChEMBL document CHEMBL4330178 (ACS Med Chem Lett, 2019)
# Columns and labels:
# [1] = biological target: von Hippel-Lindau disease tumor suppressor/Mitogen-activated protein kinase 14 (Homo sapiens, UniProt P40337+Q16539); assay: Protac activity at E3 ubiquitin ligase/p38alpha in human MDA-MB-231 cells assessed as p38alpha degradation after 4 hrs by ELISA; type: cell-based
# [2] = biological target: von Hippel-Lindau disease tumor suppressor/Mitogen-activated protein kinase 14 (Homo sapiens) (UniProt Q16539+P40337); assay: Protac activity at E3 ubiquitin ligase/p38alpha in human MDA-MB-231 cells assessed as p38alpha degradation after 4 hrs by ELISA relative to control; type: cell-based
# Chain of von Hippel-Lindau disease tumor suppressor/Mitogen-activated protein kinase 14 (Homo sapiens) (P40337 whole entry partner): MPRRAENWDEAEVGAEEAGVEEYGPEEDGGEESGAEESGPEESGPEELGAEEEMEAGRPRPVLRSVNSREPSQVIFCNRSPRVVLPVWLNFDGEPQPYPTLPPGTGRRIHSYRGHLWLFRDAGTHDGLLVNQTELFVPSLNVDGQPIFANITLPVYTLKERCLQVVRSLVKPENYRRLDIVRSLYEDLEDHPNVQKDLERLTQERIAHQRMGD
# Chain of von Hippel-Lindau disease tumor suppressor/Mitogen-activated protein kinase 14 (Homo sapiens) (Q16539 2-360 limits assumed): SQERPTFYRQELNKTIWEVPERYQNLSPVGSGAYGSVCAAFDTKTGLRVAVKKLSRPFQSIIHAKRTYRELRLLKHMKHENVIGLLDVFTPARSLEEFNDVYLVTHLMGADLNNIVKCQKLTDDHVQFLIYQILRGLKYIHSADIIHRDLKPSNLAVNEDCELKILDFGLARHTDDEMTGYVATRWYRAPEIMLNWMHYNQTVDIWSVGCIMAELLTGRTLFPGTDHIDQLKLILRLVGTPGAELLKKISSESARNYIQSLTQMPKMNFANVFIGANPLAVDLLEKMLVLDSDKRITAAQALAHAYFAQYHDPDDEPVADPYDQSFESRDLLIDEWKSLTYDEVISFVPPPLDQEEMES
# Chain of von Hippel-Lindau disease tumor suppressor/Mitogen-activated protein kinase 14 (Q16539 whole entry): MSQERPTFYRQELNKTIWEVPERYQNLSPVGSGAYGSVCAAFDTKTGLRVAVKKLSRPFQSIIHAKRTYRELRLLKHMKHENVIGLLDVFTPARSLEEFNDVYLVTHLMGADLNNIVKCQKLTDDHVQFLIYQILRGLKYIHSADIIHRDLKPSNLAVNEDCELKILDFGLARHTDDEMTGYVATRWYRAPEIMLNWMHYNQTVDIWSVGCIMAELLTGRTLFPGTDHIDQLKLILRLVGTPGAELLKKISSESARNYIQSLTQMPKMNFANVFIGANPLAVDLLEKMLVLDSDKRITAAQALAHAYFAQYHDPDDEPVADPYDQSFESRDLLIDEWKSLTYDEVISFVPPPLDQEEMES
# Chain of von Hippel-Lindau disease tumor suppressor/Mitogen-activated protein kinase 14 (P40337 whole entry): as the sequence (P40337 whole entry partner) above
IC50 [1] [nM],Emax [2] [%],Structure (SMILES)
18.8,91,COc1cc2c(Oc3ccc(NC(=O)C4(C(=O)Nc5ccc(F)cc5)CC4)cc3F)ccnc2cc1OCCCOCCOCCC(=O)N[C@H](C(=O)N1C[C@H](O)C[C@H]1C(=O)NCc1ccc(-c2scnc2C)cc1)C(C)(C)C
50,95,COc1cc2c(Oc3ccc(NC(=O)C4(C(=O)Nc5ccc(F)cc5)CC4)cc3F)ccnc2cc1OCCCOCCCOCCC(=O)N[C@H](C(=O)N1C[C@H](O)C[C@H]1C(=O)NCc1ccc(-c2scnc2C)cc1)C(C)(C)C
40.1,81,COc1cc2c(Oc3ccc(NC(=O)C4(C(=O)Nc5ccc(F)cc5)CC4)cc3F)ccnc2cc1OCCOCCOCCC(=O)N[C@H](C(=O)N1C[C@H](O)C[C@H]1C(=O)NCc1ccc(-c2scnc2C)cc1)C(C)(C)C
